Values of other authors, collected in patent US20250381170A1, “Low Concentration Delivery of an Ergoline Derivative for Treatment of a Headache” (Relevale, Inc., priority 2021, published 2025).

How the values were obtained:
[1] = within 24 hours after treatment; sumatriptan-treated patients
[2] = biological target: 5-HT1Dα receptors (Homo sapiens, UniProt P28221)
[3] = biological target: 5-HT1Dβ receptors (Homo sapiens, UniProt P28222)
[4] = biological target: T1, serotonin 5-HT1A receptors (Homo sapiens, UniProt P08908)
T1 sequence (P08908 1-422): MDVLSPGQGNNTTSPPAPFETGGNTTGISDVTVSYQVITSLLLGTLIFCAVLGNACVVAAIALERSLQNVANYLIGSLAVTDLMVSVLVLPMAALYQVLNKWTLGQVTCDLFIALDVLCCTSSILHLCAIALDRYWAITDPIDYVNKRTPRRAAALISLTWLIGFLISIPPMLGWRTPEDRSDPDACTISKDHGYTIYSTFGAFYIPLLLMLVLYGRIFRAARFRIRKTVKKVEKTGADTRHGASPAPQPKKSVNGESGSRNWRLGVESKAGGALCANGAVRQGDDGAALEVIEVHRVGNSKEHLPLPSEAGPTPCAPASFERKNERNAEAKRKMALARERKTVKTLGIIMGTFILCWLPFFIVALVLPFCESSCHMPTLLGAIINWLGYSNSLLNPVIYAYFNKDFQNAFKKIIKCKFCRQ

[5] = biological target: T2, serotonin 5-HT2C receptors (Homo sapiens, UniProt P28335)
T2 sequence (P28335 33-458): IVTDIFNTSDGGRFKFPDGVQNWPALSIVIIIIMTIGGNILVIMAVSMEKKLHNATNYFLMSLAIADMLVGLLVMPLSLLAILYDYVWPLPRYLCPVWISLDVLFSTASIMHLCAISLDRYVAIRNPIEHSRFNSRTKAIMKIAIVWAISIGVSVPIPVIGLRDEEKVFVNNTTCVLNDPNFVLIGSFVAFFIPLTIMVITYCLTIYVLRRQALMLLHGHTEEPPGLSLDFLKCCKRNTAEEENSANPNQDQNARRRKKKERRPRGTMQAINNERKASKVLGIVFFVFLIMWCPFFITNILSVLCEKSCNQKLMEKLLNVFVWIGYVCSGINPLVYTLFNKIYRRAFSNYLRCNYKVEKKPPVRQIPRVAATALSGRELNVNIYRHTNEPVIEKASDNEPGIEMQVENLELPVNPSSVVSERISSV

[6] = biological target: T3, noradrenaline α2A receptors (Homo sapiens, UniProt P08913)
T3 sequence (P08913 1-465): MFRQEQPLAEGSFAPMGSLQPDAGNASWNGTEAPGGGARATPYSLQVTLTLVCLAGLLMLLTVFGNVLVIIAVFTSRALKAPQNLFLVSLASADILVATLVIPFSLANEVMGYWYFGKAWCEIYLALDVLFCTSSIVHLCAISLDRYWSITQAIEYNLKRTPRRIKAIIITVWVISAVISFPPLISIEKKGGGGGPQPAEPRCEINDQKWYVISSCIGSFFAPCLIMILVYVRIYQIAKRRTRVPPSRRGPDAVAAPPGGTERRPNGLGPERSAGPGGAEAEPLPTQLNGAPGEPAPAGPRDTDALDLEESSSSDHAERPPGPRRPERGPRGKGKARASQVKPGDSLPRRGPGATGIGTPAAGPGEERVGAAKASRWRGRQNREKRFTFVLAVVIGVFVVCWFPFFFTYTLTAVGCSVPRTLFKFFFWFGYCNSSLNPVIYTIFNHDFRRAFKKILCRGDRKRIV

[7] = tested on: noradrenaline α, receptors
[8] = biological target: dopamine D2L receptors (Homo sapiens, UniProt P14416)
Sequence of dopamine D2L receptors (P14416 whole entry): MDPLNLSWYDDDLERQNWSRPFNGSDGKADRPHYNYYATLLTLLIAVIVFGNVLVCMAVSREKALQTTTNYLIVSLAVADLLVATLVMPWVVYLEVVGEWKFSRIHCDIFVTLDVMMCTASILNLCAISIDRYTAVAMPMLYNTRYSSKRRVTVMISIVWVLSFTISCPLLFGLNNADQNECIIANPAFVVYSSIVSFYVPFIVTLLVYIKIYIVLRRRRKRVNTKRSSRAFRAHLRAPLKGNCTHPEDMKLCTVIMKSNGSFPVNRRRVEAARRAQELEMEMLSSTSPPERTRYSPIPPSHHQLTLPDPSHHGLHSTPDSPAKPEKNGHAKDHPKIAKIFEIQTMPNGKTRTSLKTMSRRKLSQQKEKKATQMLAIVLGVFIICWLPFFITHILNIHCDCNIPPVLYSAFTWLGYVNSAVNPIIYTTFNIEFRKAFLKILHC

[9] = biological target: dopamine D3 receptors (Homo sapiens, UniProt P35462)
Sequence of dopamine D3 receptors (P35462 whole entry): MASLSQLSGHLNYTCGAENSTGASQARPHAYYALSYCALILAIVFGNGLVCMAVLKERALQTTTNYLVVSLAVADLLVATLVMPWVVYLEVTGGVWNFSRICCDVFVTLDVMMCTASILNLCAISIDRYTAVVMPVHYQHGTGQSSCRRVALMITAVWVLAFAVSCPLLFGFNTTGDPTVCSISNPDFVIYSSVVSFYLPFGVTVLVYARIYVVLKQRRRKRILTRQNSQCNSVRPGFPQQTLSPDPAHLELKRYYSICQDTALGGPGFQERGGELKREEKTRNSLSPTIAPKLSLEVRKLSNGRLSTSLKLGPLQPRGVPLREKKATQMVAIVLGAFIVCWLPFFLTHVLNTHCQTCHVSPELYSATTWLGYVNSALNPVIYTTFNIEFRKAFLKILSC

[10] = oral dosage forms

Sequence of 5-HT1Dα receptors (P28221 whole entry): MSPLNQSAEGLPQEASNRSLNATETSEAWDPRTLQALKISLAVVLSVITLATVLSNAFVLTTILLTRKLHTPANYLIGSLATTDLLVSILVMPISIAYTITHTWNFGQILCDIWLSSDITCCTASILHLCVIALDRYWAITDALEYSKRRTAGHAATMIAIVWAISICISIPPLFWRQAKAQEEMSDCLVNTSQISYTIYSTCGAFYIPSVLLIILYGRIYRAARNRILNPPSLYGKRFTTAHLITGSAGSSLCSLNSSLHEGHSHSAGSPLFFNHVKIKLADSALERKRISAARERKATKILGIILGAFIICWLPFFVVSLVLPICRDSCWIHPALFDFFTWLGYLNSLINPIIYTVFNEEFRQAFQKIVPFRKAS
Sequence of 5-HT1Dβ receptors (P28222 whole entry): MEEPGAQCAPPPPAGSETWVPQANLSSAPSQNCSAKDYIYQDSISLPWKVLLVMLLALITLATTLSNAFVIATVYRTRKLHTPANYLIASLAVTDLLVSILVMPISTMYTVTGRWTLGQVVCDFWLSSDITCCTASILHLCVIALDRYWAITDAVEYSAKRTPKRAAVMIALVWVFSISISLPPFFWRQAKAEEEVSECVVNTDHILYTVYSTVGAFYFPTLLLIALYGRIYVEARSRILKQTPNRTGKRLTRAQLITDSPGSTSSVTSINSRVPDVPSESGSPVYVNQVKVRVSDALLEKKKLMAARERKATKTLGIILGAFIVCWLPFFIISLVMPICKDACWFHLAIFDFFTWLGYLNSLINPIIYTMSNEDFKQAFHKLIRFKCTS

SMILES	patients with headache reoccurrence [1] [%]	binding affinity [2]	binding affinity [3]	binding affinity [4]	binding affinity [5]	binding affinity [6]	binding affinity [7]	binding affinity [8]	binding affinity [9]	absorption through the gut [10]
CNS(=O)(=O)Cc1ccc2[nH]cc(CCN(C)C)c2c1 [sumatriptan]	45									
CN1C[C@H](C(=O)N[C@]2(C)O[C@@]3(O)[C@@H]4CCCN4C(=O)[C@H](Cc4ccccc4)N3C2=O)C[C@@H]2c3cccc4[nH]cc(c34)C[C@H]21 [DHE, Dihydroergotamine]		high affinity	high affinity	high affinity	high affinity	high affinity	high affinity	high affinity	high affinity	poorly absorbed
